Patent publication EP1247803A2, “Indolinone compounds suitable for modulation of protein kinases” (Sugen, Inc., priority 1996, dated 1998)

Target: T1, FLK-1 receptor (Mus musculus, UniProt P35918)
T1 construct: expressed in transfected cells; host or cells: NIH3T3 C7#3
Experiment: FLK-1 ELISA (kinase activity of the FLK-1 receptor in FLK-1/NIH3T3 cells, VEGF stimulated)
Assay type: cell-based
Procedure, shortened: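 An ELISA using affinity-purified rabbit anti-FLK-1 antiserum on anti-rabbit IgG-coated plates measured VEGF-stimulated FLK-1 kinase activity. NIH3T3 C7#3 cells carrying FLK-1 were serum-starved (0.1% FBS) overnight, then exposed to compound (final 1:200 dilution, 0.5% DMSO) for two hours at 37 °C.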

T1 sequence (P35918 20-1345): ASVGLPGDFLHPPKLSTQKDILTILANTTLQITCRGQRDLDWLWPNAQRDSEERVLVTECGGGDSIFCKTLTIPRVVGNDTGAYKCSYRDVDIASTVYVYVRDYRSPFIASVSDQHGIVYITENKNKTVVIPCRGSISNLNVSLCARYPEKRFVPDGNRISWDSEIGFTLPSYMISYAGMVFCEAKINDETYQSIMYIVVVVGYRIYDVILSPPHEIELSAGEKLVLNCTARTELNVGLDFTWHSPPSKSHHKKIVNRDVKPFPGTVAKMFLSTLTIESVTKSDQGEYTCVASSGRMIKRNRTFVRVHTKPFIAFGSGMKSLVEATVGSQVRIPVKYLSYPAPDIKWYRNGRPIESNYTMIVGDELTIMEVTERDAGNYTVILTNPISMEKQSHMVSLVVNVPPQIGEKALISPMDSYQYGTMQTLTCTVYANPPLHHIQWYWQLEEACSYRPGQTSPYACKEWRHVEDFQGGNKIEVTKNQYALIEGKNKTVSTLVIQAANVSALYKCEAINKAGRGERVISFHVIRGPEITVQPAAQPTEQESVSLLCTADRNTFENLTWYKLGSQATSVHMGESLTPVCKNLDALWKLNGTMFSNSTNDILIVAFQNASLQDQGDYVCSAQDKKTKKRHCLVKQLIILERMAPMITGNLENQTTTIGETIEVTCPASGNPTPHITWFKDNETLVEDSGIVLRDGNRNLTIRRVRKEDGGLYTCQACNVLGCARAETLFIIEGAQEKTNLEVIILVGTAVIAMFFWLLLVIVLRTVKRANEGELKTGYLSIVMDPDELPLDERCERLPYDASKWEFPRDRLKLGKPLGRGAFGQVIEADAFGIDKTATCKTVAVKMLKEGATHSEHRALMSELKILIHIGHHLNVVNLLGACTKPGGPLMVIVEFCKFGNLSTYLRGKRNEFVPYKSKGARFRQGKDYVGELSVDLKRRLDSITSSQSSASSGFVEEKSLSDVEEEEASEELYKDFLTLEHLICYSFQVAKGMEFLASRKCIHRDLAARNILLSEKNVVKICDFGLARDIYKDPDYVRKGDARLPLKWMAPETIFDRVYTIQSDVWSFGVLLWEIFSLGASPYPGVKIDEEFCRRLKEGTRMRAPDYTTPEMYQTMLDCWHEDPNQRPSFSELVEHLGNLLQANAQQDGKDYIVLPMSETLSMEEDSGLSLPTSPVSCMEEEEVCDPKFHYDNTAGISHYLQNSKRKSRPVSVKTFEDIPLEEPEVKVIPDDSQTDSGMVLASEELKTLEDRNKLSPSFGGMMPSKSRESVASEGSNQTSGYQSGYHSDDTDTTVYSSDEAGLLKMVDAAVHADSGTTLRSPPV

Point of comparison: O=C1Nc2c(Br)cc(Br)cc2C1=Cc1ccc(Br)o1 [10726/A05], “Fik Kinase %Inhibition” value -7.1%. Against it:
- O=C1Nc2c(Br)cc(Br)cc2C1=Cc1ccc(F)cc1 [10717/A05] — higher, -2.6%
- Cc1ccc(C=C2C(=O)Nc3ccc(S(=O)(=O)N4CCOCC4)cc32)s1 [10717/F07] — higher, 2.0%
- O=C1Nc2ccc(S(=O)(=O)N3CCOCC3)cc2C1=Cc1ccc(Br)cc1 [10717/F08] — higher, -0.7%
- O=C1Nc2ccc(S(=O)(=O)N3CCOCC3)cc2C1=Cc1ccc[nH]1 [10717/F09] — lower, -13.3%
- Cc1[nH]c(C=C2C(=O)Nc3ccc(S(=O)(=O)N4CCOCC4)cc32)c(Br)c1Br [10717/F11] — higher, 1.4%
- CCOc1ccccc1C=C1C(=O)Nc2ccc(CCCl)cc21 [10717/G02] — higher, 14.9%
- O=C1Nc2ccc(CCCl)cc2C1=Cc1cccs1 [10717/G03] — higher, 1.8%
- Cc1c(Br)ccc2c1C(=Cc1sccc1Br)C(=O)N2 [10725/C02] — higher, 7.0%
- COc1ccc(Br)c(C=C2C(=O)Nc3ccc(Br)c(C)c32)c1O [10725/C03] — higher, 2.0%
- Cc1ccc(C=C2C(=O)Nc3ccc(Br)c(C)c32)o1 [10725/C04] — lower, -27.3%
- Cc1cc(C=C2C(=O)Nc3ccc(Br)c(C)c32)[nH]n1 [10725/C05] — lower, -37.0%
- COc1cc(C)cc(O)c1C=C1C(=O)Nc2ccc(Br)c(C)c21 [10725/C06] — lower, -9.3%
- Cc1c(Br)ccc2c1C(=Cc1ccc(N3CCN(C=O)CC3)cc1)C(=O)N2 [10725/C07] — higher, 65.0%
- Cc1c(Br)ccc2c1C(=Cc1ccc(N3CCOCC3)cc1)C(=O)N2 [10725/C08] — lower, -8.7%
- COC(=O)Cc1c(Cl)[nH]c(C=C2C(=O)Nc3ccc(Br)c(C)c32)c1C(=O)OC [10725/C09] — higher, 11.2%
- Cc1c(Br)ccc2c1C(=Cc1c(Br)cnn1-c1ccc(Cl)cc1)C(=O)N2 [10725/C10] — higher, 8.7%
- Cc1c(Br)ccc2c1C(=Cc1c[nH]cn1)C(=O)N2 [10725/C11] — higher, 104.5%
- CNS(=O)(=O)c1ccc2c(c1)C(=Cc1sccc1Br)C(=O)N2 [10725/D02] — higher, -3.6%
- CNS(=O)(=O)c1ccc2c(c1)C(=Cc1c(Br)ccc(OC)c1O)C(=O)N2 [10725/D03] — lower, -11.3%
- CNS(=O)(=O)c1ccc2c(c1)C(=Cc1ccc(C)o1)C(=O)N2 [10725/D04] — higher, 3.6%
- CNS(=O)(=O)c1ccc2c(c1)C(=Cc1cc(C)n[nH]1)C(=O)N2 [10725/D05] — higher, 2.3%
- CNS(=O)(=O)c1ccc2c(c1)C(=Cc1c(O)cc(C)cc1OC)C(=O)N2 [10725/D06] — higher, -0.5%
- CNS(=O)(=O)c1ccc2c(c1)C(=Cc1ccc(N3CCN(C=O)CC3)cc1)C(=O)N2 [10725/D07] — higher, 2.6%
- CNS(=O)(=O)c1ccc2c(c1)C(=Cc1ccc(N3CCOCC3)cc1)C(=O)N2 [10725/D08] — higher, 1.8%
- CNS(=O)(=O)c1ccc2c(c1)C(=Cc1[nH]c(Cl)c(CC(=O)OC)c1C(=O)OC)C(=O)N2 [10725/D09] — higher, -0.9%
- CNS(=O)(=O)c1ccc2c(c1)C(=Cc1c(Br)cnn1-c1ccc(Cl)cc1)C(=O)N2 [10725/D10] — higher, 9.0%
- CNS(=O)(=O)c1ccc2c(c1)C(=Cc1c[nH]cn1)C(=O)N2 [10725/D11] — higher, 13.6%
- O=C1Nc2ccc(S(=O)(=O)Nc3ccc(C(F)(F)F)cc3)cc2C1=Cc1sccc1Br [10725/E02] — higher, -5.6%
- COc1ccc(Br)c(C=C2C(=O)Nc3ccc(S(=O)(=O)Nc4ccc(C(F)(F)F)cc4)cc32)c1O [10725/E03] — higher, -0.8%
- Cc1ccc(C=C2C(=O)Nc3ccc(S(=O)(=O)Nc4ccc(C(F)(F)F)cc4)cc32)o1 [10725/E04] — lower, -38.8%
- Cc1cc(C=C2C(=O)Nc3ccc(S(=O)(=O)Nc4ccc(C(F)(F)F)cc4)cc32)[nH]n1 [10725/E05] — higher, -0.2%
- COc1cc(C)cc(O)c1C=C1C(=O)Nc2ccc(S(=O)(=O)Nc3ccc(C(F)(F)F)cc3)cc21 [10725/E06] — higher, -1.8%
- O=CN1CCN(c2ccc(C=C3C(=O)Nc4ccc(S(=O)(=O)Nc5ccc(C(F)(F)F)cc5)cc43)cc2)CC1 [10725/E07] — higher, 9.7%
- O=C1Nc2ccc(S(=O)(=O)Nc3ccc(C(F)(F)F)cc3)cc2C1=Cc1ccc(N2CCOCC2)cc1 [10725/E08] — higher, 12.1%
- COC(=O)Cc1c(Cl)[nH]c(C=C2C(=O)Nc3ccc(S(=O)(=O)Nc4ccc(C(F)(F)F)cc4)cc32)c1C(=O)OC [10725/E09] — higher, 7.0%
- O=C1Nc2ccc(S(=O)(=O)Nc3ccc(C(F)(F)F)cc3)cc2C1=Cc1c(Br)cnn1-c1ccc(Cl)cc1 [10725/E10] — higher, 9.3%
- O=C1Nc2ccc(S(=O)(=O)Nc3ccc(C(F)(F)F)cc3)cc2C1=Cc1c[nH]cn1 [10725/E11] — higher, 18.9%
- O=C1Nc2ccc(S(=O)(=O)N3CCOCC3)cc2C1=Cc1sccc1Br [10725/F02] — higher, 5.8%
- COc1ccc(Br)c(C=C2C(=O)Nc3ccc(S(=O)(=O)N4CCOCC4)cc32)c1O [10725/F03] — higher, 4.3%
- Cc1ccc(C=C2C(=O)Nc3ccc(S(=O)(=O)N4CCOCC4)cc32)o1 [10725/F04] — higher, -6.9%
- Cc1cc(C=C2C(=O)Nc3ccc(S(=O)(=O)N4CCOCC4)cc32)[nH]n1 [10725/F05] — higher, -0.8%
- COc1cc(C)cc(O)c1C=C1C(=O)Nc2ccc(S(=O)(=O)N3CCOCC3)cc21 [10725/F06] — higher, -1.0%
- O=CN1CCN(c2ccc(C=C3C(=O)Nc4ccc(S(=O)(=O)N5CCOCC5)cc43)cc2)CC1 [10725/F07] — higher, 6.9%
- O=C1Nc2ccc(S(=O)(=O)N3CCOCC3)cc2C1=Cc1ccc(N2CCOCC2)cc1 [10725/F08] — higher, 8.9%
- COC(=O)Cc1c(Cl)[nH]c(C=C2C(=O)Nc3ccc(S(=O)(=O)N4CCOCC4)cc32)c1C(=O)OC [10725/F09] — higher, 6.8%
- O=C1Nc2ccc(S(=O)(=O)N3CCOCC3)cc2C1=Cc1c(Br)cnn1-c1ccc(Cl)cc1 [10725/F10] — higher, 4.8%
- O=C1Nc2ccc(S(=O)(=O)N3CCOCC3)cc2C1=Cc1c[nH]cn1 [10725/F11] — higher, 9.9%
- O=C1Nc2ccc(CCCl)cc2C1=Cc1sccc1Br [10725/G02] — higher, -3.7%
- COc1ccc(Br)c(C=C2C(=O)Nc3ccc(CCCl)cc32)c1O [10725/G03] — higher, -6.9%
- Cc1ccc(C=C2C(=O)Nc3ccc(CCCl)cc32)o1 [10725/G04] — higher, 6.1%
- Cc1cc(C=C2C(=O)Nc3ccc(CCCl)cc32)[nH]n1 [10725/G05] — lower, -18.3%
- COc1cc(C)cc(O)c1C=C1C(=O)Nc2ccc(CCCl)cc21 [10725/G06] — higher, 21.7%
- O=CN1CCN(c2ccc(C=C3C(=O)Nc4ccc(CCCl)cc43)cc2)CC1 [10725/G07] — higher, 4.8%
- O=C1Nc2ccc(CCCl)cc2C1=Cc1ccc(N2CCOCC2)cc1 [10725/G08] — lower, -14.8%
- COC(=O)Cc1c(Cl)[nH]c(C=C2C(=O)Nc3ccc(CCCl)cc32)c1C(=O)OC [10725/G09] — higher, 15.2%
- O=C1Nc2ccc(CCCl)cc2C1=Cc1c(Br)cnn1-c1ccc(Cl)cc1 [10725/G10] — higher, 11.1%
- O=C1Nc2ccc(CCCl)cc2C1=Cc1c[nH]cn1 [10725/G11] — lower, -28.0%
- CCOC(=O)c1[nH]c(C=C2C(=O)Nc3c(Br)cc(Br)cc32)c(C(=O)OC)c1C [10726/A03] — higher, -2.6%
- Cc1cc(C=C2C(=O)Nc3c(Br)cc(Br)cc32)cc(C(C)(C)C)c1O [10726/A04] — higher, 7.6%
- Cc1cn(C)cc1C=C1C(=O)Nc2c(Br)cc(Br)cc21 [10726/A06] — higher, -4.6%
- O=C1Nc2c(Br)cc(Br)cc2C1=Cc1cc(O)c2c(c1O)CCCC2 [10726/A07] — lower, -72.3%
- O=C1Nc2ccc(F)cc2C1=C1C(=O)Nc2c(Br)cc(Br)cc21 [10726/A08] — higher, -4.0%
- O=C1Nc2ccccc2C1=C1C(=O)Nc2c(Br)cc(Br)cc21 [10726/A09] — higher, -4.5%
- CCc1ccc(C=C2C(=O)Nc3c(Br)cc(Br)cc32)s1 [10726/A10] — higher, 3.7%
- COc1ccc(C=C2C(=O)Nc3c(Br)cc(Br)cc32)cc1 [10726/A11] — higher, 0.5%
- CCOC(=O)c1[nH]c(C=C2C(=O)Nc3ccc(I)cc32)c(C(=O)OC)c1C [10726/B03] — higher, 11.1%
- Cc1cc(C=C2C(=O)Nc3ccc(I)cc32)cc(C(C)(C)C)c1O [10726/B04] — higher, 16.8%
- O=C1Nc2ccc(I)cc2C1=Cc1ccc(Br)o1 [10726/B05] — higher, 13.2%
- Cc1cn(C)cc1C=C1C(=O)Nc2ccc(I)cc21 [10726/B06] — higher, 11.3%
- O=C1Nc2ccc(I)cc2C1=Cc1cc(O)c2c(c1O)CCCC2 [10726/B07] — lower, -36.5%
- O=C1Nc2ccc(F)cc2C1=C1C(=O)Nc2ccc(I)cc21 [10726/B08] — higher, 12.2%
- CCc1ccc(C=C2C(=O)Nc3ccc(I)cc32)s1 [10726/B10] — higher, 3.7%
- COc1ccc(C=C2C(=O)Nc3ccc(I)cc32)cc1 [10726/B11] — higher, 7.4%
- CCOC(=O)c1[nH]c(C=C2C(=O)Nc3ccc(Br)c(C)c32)c(C(=O)OC)c1C [10726/C03] — higher, 24.9%
- Cc1cc(C=C2C(=O)Nc3ccc(Br)c(C)c32)cc(C(C)(C)C)c1O [10726/C04] — higher, 12.3%
- Cc1c(Br)ccc2c1C(=Cc1ccc(Br)o1)C(=O)N2 [10726/C05] — higher, 4.0%
- Cc1cn(C)cc1C=C1C(=O)Nc2ccc(Br)c(C)c21 [10726/C06] — higher, 23.8%

For COc1cccc(O)c1C=C1C(=O)Nc2ccc(S(=O)(=O)N3CCOCC3)cc21 [10717/F10], the “Fik Kinase %Inhibition” value was -4,4%.
